Reference: patent US20160368895A1, “PULMONARY HYPERTENSION TREATING AGENT” (THE UNIVERSITY OF TOKYO, priority 2013, published 2016)

Tests used:
[1] = molecular target: T1, human PGI2 receptors (hIP) (Homo sapiens, UniProt P43119); assay: Method C: effect on epoprostenol-cAMP production curve in CHO/hIP cells (left shift value); type: cell-based; conditions: Table 4, concentration of test compound that halves the EC50 of epoprostenol
T1 construct: expressed in transfected cells; host or cells: CHO-K1
T1 sequence (P43119 whole entry): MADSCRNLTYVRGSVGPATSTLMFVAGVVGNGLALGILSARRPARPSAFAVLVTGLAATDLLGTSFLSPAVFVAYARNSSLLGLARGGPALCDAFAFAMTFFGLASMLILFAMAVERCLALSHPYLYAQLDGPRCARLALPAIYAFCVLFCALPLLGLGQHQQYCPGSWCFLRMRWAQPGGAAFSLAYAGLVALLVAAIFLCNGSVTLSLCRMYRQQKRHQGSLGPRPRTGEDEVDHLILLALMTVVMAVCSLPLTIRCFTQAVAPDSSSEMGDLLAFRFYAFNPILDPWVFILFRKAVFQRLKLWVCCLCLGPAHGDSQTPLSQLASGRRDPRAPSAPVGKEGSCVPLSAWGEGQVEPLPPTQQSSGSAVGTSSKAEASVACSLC
Protocol: The effect of a test compound on the cAMP production curve with respect to the IP agonist epoprostenol (manufactured by GlaxoSmithKline) was investigated using CHO-K1 cells (CHO/hIP cells) in which human PGI2 receptors (hIP) are stably expressed.
(§1) An amount of 5 μL of a mixture (diluted in F-12 culture medium (manufactured by GIBCO) including 0.1% BSA) of epoprostenol dissolved in DMSO and a test compound dissolved in DMSO was dispensed in advance into a 384-well black microplate, and 5 μL of CHO/hIP cells suspended at a concentration of 1.4×10^6 cells/mL in F-12 culture medium including 0.1% BSA were added to the microplate. After 40 minutes of incubation at room temperature, the amount of cAMP was measured using a cAMP assay kit (cAMP HiRange, manufactured by Cisbio Bioassays). Specifically, 5 μL of a cAMP-d2 solution (including a cell lysate) from the kit were added and the reaction was stopped, then 5 μL of a fluorescence-labeled cAMP antibody solution from the kit were added and incubation was performed for 1 hour at room temperature, after which fluorescence was measured using a PHERAstar plate reader (manufactured by BMG) in HTRF (registered trademark) mode. The amount of cAMP in each well was calculated from a cAMP calibration curve obtained using a standard sample, and an epoprostenol-cAMP production curve for the presence of various concentrations of the test compound was created.

[2] = molecular target: T1, human PGI2 receptors (hIP); assay: Method B: positive allosteric modulator activity, cAMP in CHO/hIP cells with 1 nM epoprostenol; type: cell-based; conditions: cAMP relative to 1 nM epoprostenol alone
Protocol: The positive allosteric modulator activity of a test compound was measured as a change in the amount of intracellular cyclic AMP (cAMP) in the presence of 1 nM of the IP agonist epoprostenol (manufactured by GlaxoSmithKline), using CHO-K1 cells (CHO/hIP cells) in which human PGI2 receptors (hIP) are stably expressed.
as §1, with “and” for “and an epoprostenol-cAMP production curve for”, “activity” for “presence”, “each” for “various concentrations of the”, “is noted below as a ratio T/C (%) based on the amount of cAMP for 1 nM of epoprostenol alone.” for “was created.”

[3] = test system: thoracic aorta of the marmot; assay: Magnus test using a blood vessel removed from a marmot; conditions: 20 μM of test compound; FIG. 2
Protocol: An incision was made in the thoracic region of a marmot (slc/Harley, male, 11-12 weeks of age) under anesthesia, and the thoracic aorta of the marmot was removed. The vascular endothelium was removed using a thread, after which the blood vessel was cut into a round slice having a width of approximately 2 mm and fixed to a fixing rod using thread or a stainless steel hook, and placed in a 10 mL Magnus tube maintained at a temperature of 37° C. and saturated with a 95% O2/5% CO2 gas mixture, and a tension of 1 g was placed on the blood vessel. When the tension on the specimen became stable, phenylephrine (phenylephrine hydrochloride, PHE, manufactured by Sigma-Aldrich Japan, final concentration: 3×10^−6 mol/L) was added thereto to cause the specimen to contract, the test compound or a solvent was added when the contraction became stable, the IP agonist beraprost (beraprost sodium, manufactured by Cayman Chemical) was cumulatively added after 15 minutes to give a final concentration of 1 nM to 1000 nM, and the change in relaxation response was recorded.
The contraction inhibition rate for each set of data was calculated using a contraction rate of 100% as the control (DMSO addition).

[4] = molecular target: T1, human PGI2 receptors (hIP); assay: Method D: effect on cAMP production in human aortic smooth muscle cells (left shift value); type: cell-based; conditions: concentration of test compound that halves the EC50 of epoprostenol
Protocol: The effect of a test compound on the cAMP production curve with respect to the IP agonist epoprostenol (manufactured by GlaxoSmithKline) was investigated using human aortic smooth muscle cells known to express human PGI2 receptors (hIP).
as §1, with “created. […]” for “created.”

| left shift value [1] | T/C ([2]; test concentration 10 uM) | T/C ([2]; test concentration 5 uM) | left shift value [4] | Structure (SMILES) | enhancement of vasoconstriction inhibition (vasorelaxation) with respect to beraprost [3] |
| --- | --- | --- | --- | --- | --- |
| 61.25 µM | 116.3% |  |  | Cc1ccc2c(c1)CN(C(c1ccccc1C)c1nnnn1C(C)(C)C)CC2 (centres unmarked) [Example 24] |  |
| 5.5 µM | 177.2% |  |  | Cc1ccccc1C(c1nnnn1C(C)(C)C)N1CCc2ccccc2C1 (centres unmarked) [Example 25] |  |
| 163.7 µM | 105.5% |  |  | CC(C)(C)n1nnnc1C(c1ccccc1N)N1CCc2ccccc2C1 (centres unmarked) [Example 26] |  |
| 15.2 µM |  | 99.8% |  | Cc1ccc2c(c1)CN(C(c1ccccc1C)c1nnnn1C(C)(C)C)CC2 (centres unmarked) [Example 27] |  |
| 15.2 µM | 135.5% |  |  | Cc1ccccc1C(c1nnnn1C(C)(C)C)N1CCc2c(Cl)cccc2C1 (centres unmarked) [Example 29] |  |
| 269.8 µM | 100.4% |  |  | CC(C)(C)n1nnnc1C(c1ccccc1[N+](=O)[O-])N1CCc2ccc(F)cc2C1 (centres unmarked) [Example 30] |  |
| 3.5 µM | 186.2% |  |  | CC(C)(C)n1nnnc1C(C1=CC=CC1)N1CCc2ccccc2C1 (centres unmarked) [Example 31] |  |
| 8.4 µM | 153.8% |  |  | CC(C)(C)n1nnnc1C(C1=CCC=C1)N1CCc2ccccc2C1 (centres unmarked) [Example 32] |  |
| 38.4 µM | 119.7% |  |  | CC(C)(C)n1nnnc1C(c1ccco1)N1CCc2ccccc2C1 (centres unmarked) [Example 33] |  |
| 11.7 µM | 145.9% |  |  | CC(C)(C)n1nnnc1C(c1ccoc1)N1CCc2ccccc2C1 (centres unmarked) [Example 34] |  |
| 28.5 µM | 121.8% |  |  | CC(C)(C)n1nnnc1C(c1ccc[nH]1)N1CCc2ccccc2C1 (centres unmarked) [Example 35] |  |
| 5.7 µM | 172.6% |  |  | CC(C)(C)n1nnnc1C(c1c[nH]c2ccccc12)N1CCc2ccccc2C1 (centres unmarked) [Example 36] |  |
| 71.1 µM | 104.9% |  |  | COc1cccc(OC)c1C(c1nnnn1C(C)(C)C)N1CCc2ccccc2C1 (centres unmarked) [Example 37] |  |
| 15.1 µM | 147.0% |  |  | COc1cc(F)ccc1C(c1nnnn1C(C)(C)C)N1CCc2ccccc2C1 (centres unmarked) [Example 38] |  |
| 12.3 µM | 144.4% |  |  | CC(C)(C)n1nnnc1C(c1ccccc1)N1CCc2ccccc2C1 (centres unmarked) [Example 39] |  |
| 14.5 µM | 142.5% |  |  | Cc1ccccc1C(c1nnnn1C1(C)CCCCC1)N1CCc2ccccc2C1 (centres unmarked) [Example 42] |  |
| 1.2 µM | 267.8% |  |  | COc1cc[nH]c1C(c1nnnn1C(C)(C)C)N1CCc2ccccc2C1 (centres unmarked) [Example 43] |  |
| 7.7 µM |  | 143.8% |  | COc1csc(C(c2nnnn2C(C)(C)C)N2CCc3ccccc3C2)c1 (centres unmarked) [Example 44] |  |
| 5.7 µM |  | 144.3% |  | COc1ccccc1C(c1nnnn1C1(C)CCCCCC1)N1CCc2ccccc2C1 (centres unmarked) [Example 45] |  |
| 267.0 µM | 106.2% |  |  | Cc1ccccc1C(c1nnnn1C1(C)CCCCCC1)N1CCc2ccccc2C1 (centres unmarked) [Example 46] |  |
| 25.4 µM | 121.9% |  |  | CSc1ccccc1C(c1nnnn1C1(C)CCCCCC1)N1CCc2ccccc2C1 (centres unmarked) [Example 47] |  |
| 4.3 µM |  |  | 3.9 µM | COc1ccccc1C(c1nnnn1C(C)(C)C)N1CCc2ccccc2C1 (centres unmarked) [Example 51] | an enhancement of vasoconstriction inhibition (vasorelaxation) with respect to the IP agonist beraprost was recognized |
| 4.7 µM |  |  | 2.9 µM | CC(C)(C)n1nnnc1C(c1ccccc1F)N1CCc2ccccc2C1 (centres unmarked) [Example 54] |  |
| 117.3 µM | 101.0% |  |  | CCOc1ccccc1C(C1=NNCN1C(C)(C)C)N1CCc2ccc(O)cc2C1 (centres unmarked) [Example 56] |  |
| 1.4 µM | 256.5% |  |  | CC(C)(C)n1nnnc1C(c1ccccc1O)N1CCc2ccccc2C1 (centres unmarked) [Example 57, 2-((1-tert-butyl-1H-tetrazol-5-yl)(3,4-dihydroisoquinolin-2(1H)-yl)methyl)phenol] |  |
| 78.3 µM | 102.7% |  |  | CC(C)(C)n1nnnc1C(c1ccccc1N)N1CCc2ccccc2C1 (centres unmarked) [Example 58, 2-((1-tert-butyl-1H-tetrazol-5-yl)(3,4-dihydroisoquinolin-2(1H)-yl)methyl)aniline] |  |
